Earlier results, collected in patent publication US20240050486A1, “METHODS OF GENERATING CORTICAL EXCITATORY NEURONS” (Memorial Sloan-Kettering Cancer Center, priority 2021, published 2024).

Key:
WNT pathway (Porcupine) = settings: at the level of the pathway activator Porcupine; read-out: IC50 WNT pathway inhibition

IC50 (WNT pathway (Porcupine)) [nM] | SMILES | degradation of β-catenin (SW480 cells) | protein levels of the axin-GSK3β complex (SW480 cells)
27 | Cc1ccc2nc(NC(=O)CSc3nc4c(c(=O)n3-c3ccccc3)SCC4)sc2c1 [IWP-2, N-(6-methyl-1,3-benzothiazol-2-yl)-2-[(4-oxo-3-phenyl-6,7-dihydrothieno[3,2-d]pyrimidin-2-yl)thio]acetamide] | – | –
– | Oc1nc(-c2ccc(C(F)(F)F)cc2)nc2c1CSCC2 [XAV939] | promotes the degradation of β-catenin | increases the protein levels of the axin-GSK3β complex
